# Laboratory results from patent US4608365A, “Treatment of neurologic functions” (priority 1984, dated 1986).
# Experiments:
# patients given TRH = test: Amelioration of TRH side-effects by co-medication; set-up: species or system human; conditions: in vivo
# From the text: In addition, all patients experiencing the various described side-effects considered those side-effects to be minor and desired further TRH treatments.
# [1] = tested on: tissue-cultured fetal rat lower motor neurons; test: Trophic-like effect on tissue-cultured fetal rat lower motor neurons (cholineactyltransferase); assay type: cell-based; conditions: chronic
# From the text: "Transmitter-like," as used herein, includes not only direct excitatory (or facilitatory) and inhibitory actions on the lower motor neurons, but also any action on lower motor neurons or afferents thereto that results indirectly in such an effect. That excitatory TRH action, increasing patients' strength, is either directly excitatory or facilitatory and perhaps analogous to the lower motor neuron facilitation of glutamate excitation noted with TRH micropipetted into spinal cords of normal amphibia (Nicoll, J. Pharmac. Exp. Therap. 1978; 207: 817-24; Phillis et al., Can. J. Physiol. Pharmacol. 1979; 57: 887-99 and rodents, White Abstr. Soc. Neurosci 1983, 9: 714, and in other animal studies. An inhibitory transmitter-like action seems likely to underlie both the rapid-onset autorefractory phenomenon and the possibly related clinical reduction of spasticity, spasms and cramps. A tachyphalaxis or desensitization phenomenon, perhaps similar to the clinical autorefractory state, has been noted in animal lower motor neurons with larger amounts of TRH micropipetted into the spinal cord (Nicoll and Phillis, et al., supra).
compound,measurement,setting,value
CC(N)C(O)c1ccccc1 (stereo not drawn) [phenylpropanolamine],effect on shivering side-effect of TRH,patients given TRH,diminish the shivering side-effect
insulin,enhancement of cholineactyltransferase,[1],10 fold
CN(C)CCOC(c1ccccc1)c1ccccc1.Cn1c(=O)c2[nH]c(Cl)nc2n(C)c1=O [dimenhydrate],effect on nausea side-effect of TRH,patients given TRH,"diminishes the rare, occurring nausea side-effect"
